Measurements published in PubChem BioAssay (NCI).
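Grown in 96-well plates, cells were treated for 48 hours with each compound at five concentrations. Insufficient inhibition: endpoint recorded as highest concentration tested. GI50 is the concentration that inhibits growth by half. At the TGI there is no net growth.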

What follows are compounds tested on BT-549 breast (assay: NCI anticancer screen, dose series, 48 h).

SMILES	TGI [µM]	GI50 [µM]
c1ccc(C2=NNC3c4ccccc4-c4ccccc4N3C2)cc1 (stereo not drawn)	> 100	
CN/N=C(/CCN1CCCC1)CC(c1ccccc1)c1c(O)c2ccccc2oc1=O (stereo not drawn)	> 100	
COc1ccc(OC)c(/C=C/C(=O)N/N=C/c2ccc(Cl)cc2)c1	> 100	1.17
COc1ccc(C(=O)c2cc(C)c(OC)c(C)c2)c(OC)c1N(C(=O)C(Cl)Cl)C(=O)C(Cl)Cl	2.75	0.0607
CCN(CC)c1sc(N(CC)CC)c2c1SSSSS2	4.8	2.06
O=C(c1cccc(O)c1O)c1cn(Cc2ccc(F)cc2)c2cccc(O)c12	21.6	7.72
COC(=O)Nc1nc2ccc(Oc3ccc(NC(=O)Nc4ccccc4)cc3)cc2[nH]1	11.8	1.61
O=C1c2c(Br)sc(Br)c2C(NC(=O)C(F)(F)F)C1O (stereo not drawn)	34.9	
CCN(CC)CCCC(C)Nc1c(C)cnc2cc(Cl)c(C)cc12 (stereo not drawn)	28.7	12.9
CCCCCCCC(CC(=O)NC(CO)C(=O)NC(CO)CC(C)C)OC(=O)CC(CCCCCCC)OC(=O)CC(CCCCCCC)OC1OC(C)C(O)C(OC2OC(C)C(O)C(OC(C)=O)C2O)C1O (stereo not drawn)	19.9	
CCc1[nH]c(=O)nc(N)c1-c1ccc(N2CCCCC2)c([N+](=O)[O-])c1	> 100	
CCC#CC[C@H]1C/C=C2/C(=O)C=C[C@@H]2C/C=C\CCCC(=O)O1	3.27	1.11
CCN(CC)CCN1CC(O)=C(c2nc(-c3ccc(Cl)cc3)cs2)C1=N	21.2	5.17
COc1cc(OC)c(/C=C/C(=O)c2c(OC)cccc2OC)c(OC)c1	1.84	0.3
O=C(Nc1ccc(Cl)cc1)c1cc(-c2ccc(F)cc2)c2sc(=O)[nH]c2n1	6.88	1.73
COc1cc(NC(=O)c2cc(O)c(CC=C(C)C)c(O)c2)cc2c1O[C@]1(C)CC[C@@H](O)C(C)(C)[C@H]1C2	13.5	0.819
Cc1cc(S(=O)(=O)Nc2nc(N)nc(N3N=CCC3C)n2)c(SCC(=O)O)cc1Cl (stereo not drawn)	> 10	
Cc1ccc(C(=NN=C(N)N)c2ccc(C)cc2)cc1	8.69	2.21
Clc1nc(Cl)c2ncn(Cc3cccc(COc4cccc(OCc5cccc(Cn6cnc7c(Cl)nc(Cl)nc76)c5)c4)c3)c2n1	> 100	14.1
CCS(=O)(=O)c1ccc(OC)c(Nc2ncc(-c3cccc(OC)c3)o2)c1	> 25	14.6
CCCCN=C(N)c1ccc(OCCSCCOc2ccc(C(N)=NCCCC)cc2)cc1	13.3	1.97
CC(C)c1ccc(C(=O)Nc2sc3c(c2C(N)=O)CCC(=O)C3)cc1	1.94	0.352

The compounds below were run on EKVX NSCLC (assay: NCI anticancer screen, dose series, 48 h).

SMILES	TGI [µM]	GI50 [µM]
c1ccc(C2=NNC3c4ccccc4-c4ccccc4N3C2)cc1 (stereo not drawn)	> 100	
CN/N=C(/CCN1CCCC1)CC(c1ccccc1)c1c(O)c2ccccc2oc1=O (stereo not drawn)	> 100	
COc1ccc(OC)c(/C=C/C(=O)N/N=C/c2ccc(Cl)cc2)c1	> 100	0.704
COc1ccc(C(=O)c2cc(C)c(OC)c(C)c2)c(OC)c1N(C(=O)C(Cl)Cl)C(=O)C(Cl)Cl	> 100	0.0735
CCN(CC)c1sc(N(CC)CC)c2c1SSSSS2	5.54	1.84
O=C(c1cccc(O)c1O)c1cn(Cc2ccc(F)cc2)c2cccc(O)c12	> 54.4	9.3
COC(=O)Nc1nc2ccc(Oc3ccc(NC(=O)Nc4ccccc4)cc3)cc2[nH]1	> 25	2.44
O=C1c2c(Br)sc(Br)c2C(NC(=O)C(F)(F)F)C1O (stereo not drawn)	39.5	
CCN(CC)CCCC(C)Nc1c(C)cnc2cc(Cl)c(C)cc12 (stereo not drawn)	38.7	15
CCCCCCCC(CC(=O)NC(CO)C(=O)NC(CO)CC(C)C)OC(=O)CC(CCCCCCC)OC(=O)CC(CCCCCCC)OC1OC(C)C(O)C(OC2OC(C)C(O)C(OC(C)=O)C2O)C1O (stereo not drawn)	28.7	
CCc1[nH]c(=O)nc(N)c1-c1ccc(N2CCCCC2)c([N+](=O)[O-])c1	> 100	
CCC#CC[C@H]1C/C=C2/C(=O)C=C[C@@H]2C/C=C\CCCC(=O)O1	7.42	1.9
CCN(CC)CCN1CC(O)=C(c2nc(-c3ccc(Cl)cc3)cs2)C1=N	33.9	9.36
COc1cc(OC)c(/C=C/C(=O)c2c(OC)cccc2OC)c(OC)c1	> 100	4.03
O=C(Nc1ccc(Cl)cc1)c1cc(-c2ccc(F)cc2)c2sc(=O)[nH]c2n1	6.11	1.64
COc1cc(NC(=O)c2cc(O)c(CC=C(C)C)c(O)c2)cc2c1O[C@]1(C)CC[C@@H](O)C(C)(C)[C@H]1C2	48.2	5.96
Cc1cc(S(=O)(=O)Nc2nc(N)nc(N3N=CCC3C)n2)c(SCC(=O)O)cc1Cl (stereo not drawn)	> 10	
Cc1ccc(C(=NN=C(N)N)c2ccc(C)cc2)cc1	16.6	0.7
Clc1nc(Cl)c2ncn(Cc3cccc(COc4cccc(OCc5cccc(Cn6cnc7c(Cl)nc(Cl)nc76)c5)c4)c3)c2n1	> 100	> 100
CCS(=O)(=O)c1ccc(OC)c(Nc2ncc(-c3cccc(OC)c3)o2)c1	> 25	18.9
CCCCN=C(N)c1ccc(OCCSCCOc2ccc(C(N)=NCCCC)cc2)cc1	> 100	0.96
CC(C)c1ccc(C(=O)Nc2sc3c(c2C(N)=O)CCC(=O)C3)cc1	5.34	1.78

Each compound was assayed on HS 578T breast (assay: NCI anticancer screen, dose series, 48 h).

SMILES	TGI [µM]	GI50 [µM]
c1ccc(C2=NNC3c4ccccc4-c4ccccc4N3C2)cc1 (stereo not drawn)	> 100	
CN/N=C(/CCN1CCCC1)CC(c1ccccc1)c1c(O)c2ccccc2oc1=O (stereo not drawn)	> 100	
COc1ccc(OC)c(/C=C/C(=O)N/N=C/c2ccc(Cl)cc2)c1	> 100	0.188
COc1ccc(C(=O)c2cc(C)c(OC)c(C)c2)c(OC)c1N(C(=O)C(Cl)Cl)C(=O)C(Cl)Cl	> 100	0.0277
CCN(CC)c1sc(N(CC)CC)c2c1SSSSS2	23.2	2.75
O=C(c1cccc(O)c1O)c1cn(Cc2ccc(F)cc2)c2cccc(O)c12	20.6	3.42
COC(=O)Nc1nc2ccc(Oc3ccc(NC(=O)Nc4ccccc4)cc3)cc2[nH]1	4.45	0.0921
O=C1c2c(Br)sc(Br)c2C(NC(=O)C(F)(F)F)C1O (stereo not drawn)	> 100	
CCN(CC)CCCC(C)Nc1c(C)cnc2cc(Cl)c(C)cc12 (stereo not drawn)	45.2	19.1
CCCCCCCC(CC(=O)NC(CO)C(=O)NC(CO)CC(C)C)OC(=O)CC(CCCCCCC)OC(=O)CC(CCCCCCC)OC1OC(C)C(O)C(OC2OC(C)C(O)C(OC(C)=O)C2O)C1O (stereo not drawn)	20.3	
CCc1[nH]c(=O)nc(N)c1-c1ccc(N2CCCCC2)c([N+](=O)[O-])c1	> 100	
CCC#CC[C@H]1C/C=C2/C(=O)C=C[C@@H]2C/C=C\CCCC(=O)O1	14.8	1.96
CCN(CC)CCN1CC(O)=C(c2nc(-c3ccc(Cl)cc3)cs2)C1=N	3.59	1.5
COc1cc(OC)c(/C=C/C(=O)c2c(OC)cccc2OC)c(OC)c1	> 36.3	1.28
O=C(Nc1ccc(Cl)cc1)c1cc(-c2ccc(F)cc2)c2sc(=O)[nH]c2n1	13.1	2.13
COc1cc(NC(=O)c2cc(O)c(CC=C(C)C)c(O)c2)cc2c1O[C@]1(C)CC[C@@H](O)C(C)(C)[C@H]1C2	15.5	0.456
Cc1cc(S(=O)(=O)Nc2nc(N)nc(N3N=CCC3C)n2)c(SCC(=O)O)cc1Cl (stereo not drawn)	> 10	
Cc1ccc(C(=NN=C(N)N)c2ccc(C)cc2)cc1	3.69	0.424
Clc1nc(Cl)c2ncn(Cc3cccc(COc4cccc(OCc5cccc(Cn6cnc7c(Cl)nc(Cl)nc76)c5)c4)c3)c2n1	> 100	> 100
CCS(=O)(=O)c1ccc(OC)c(Nc2ncc(-c3cccc(OC)c3)o2)c1	17.6	5.48
CCCCN=C(N)c1ccc(OCCSCCOc2ccc(C(N)=NCCCC)cc2)cc1	> 100	34.2
CC(C)c1ccc(C(=O)Nc2sc3c(c2C(N)=O)CCC(=O)C3)cc1	5.27	0.534

These compounds were tested on HT29 colon (assay: NCI anticancer screen, dose series, 48 h).

SMILES	TGI [µM]	GI50 [µM]
c1ccc(C2=NNC3c4ccccc4-c4ccccc4N3C2)cc1 (stereo not drawn)	> 100	
CN/N=C(/CCN1CCCC1)CC(c1ccccc1)c1c(O)c2ccccc2oc1=O (stereo not drawn)	> 100	
COc1ccc(OC)c(/C=C/C(=O)N/N=C/c2ccc(Cl)cc2)c1	4.65	0.0388
COc1ccc(C(=O)c2cc(C)c(OC)c(C)c2)c(OC)c1N(C(=O)C(Cl)Cl)C(=O)C(Cl)Cl	> 40.6	0.323
CCN(CC)c1sc(N(CC)CC)c2c1SSSSS2	5.2	2.06
O=C(c1cccc(O)c1O)c1cn(Cc2ccc(F)cc2)c2cccc(O)c12	23.4	7.43
COC(=O)Nc1nc2ccc(Oc3ccc(NC(=O)Nc4ccccc4)cc3)cc2[nH]1	1.01	0.0937
O=C1c2c(Br)sc(Br)c2C(NC(=O)C(F)(F)F)C1O (stereo not drawn)	53.6	
CCN(CC)CCCC(C)Nc1c(C)cnc2cc(Cl)c(C)cc12 (stereo not drawn)	> 24.8	2.72
CCCCCCCC(CC(=O)NC(CO)C(=O)NC(CO)CC(C)C)OC(=O)CC(CCCCCCC)OC(=O)CC(CCCCCCC)OC1OC(C)C(O)C(OC2OC(C)C(O)C(OC(C)=O)C2O)C1O (stereo not drawn)	20.4	
CCc1[nH]c(=O)nc(N)c1-c1ccc(N2CCCCC2)c([N+](=O)[O-])c1	> 100	
CCC#CC[C@H]1C/C=C2/C(=O)C=C[C@@H]2C/C=C\CCCC(=O)O1	2.39	0.894
CCN(CC)CCN1CC(O)=C(c2nc(-c3ccc(Cl)cc3)cs2)C1=N	6.27	2
COc1cc(OC)c(/C=C/C(=O)c2c(OC)cccc2OC)c(OC)c1	> 100	0.398
O=C(Nc1ccc(Cl)cc1)c1cc(-c2ccc(F)cc2)c2sc(=O)[nH]c2n1	11.4	3.02
COc1cc(NC(=O)c2cc(O)c(CC=C(C)C)c(O)c2)cc2c1O[C@]1(C)CC[C@@H](O)C(C)(C)[C@H]1C2	11.9	3.47
Cc1cc(S(=O)(=O)Nc2nc(N)nc(N3N=CCC3C)n2)c(SCC(=O)O)cc1Cl (stereo not drawn)	> 10	
Cc1ccc(C(=NN=C(N)N)c2ccc(C)cc2)cc1	1.17	0.316
Clc1nc(Cl)c2ncn(Cc3cccc(COc4cccc(OCc5cccc(Cn6cnc7c(Cl)nc(Cl)nc76)c5)c4)c3)c2n1	> 100	> 100
CCS(=O)(=O)c1ccc(OC)c(Nc2ncc(-c3cccc(OC)c3)o2)c1	> 25	10.8
CCCCN=C(N)c1ccc(OCCSCCOc2ccc(C(N)=NCCCC)cc2)cc1	> 100	2.79
CC(C)c1ccc(C(=O)Nc2sc3c(c2C(N)=O)CCC(=O)C3)cc1	5.34	0.484

These compounds were tested on NCI-H226 lung (assay: NCI anticancer screen, dose series, 48 h).

SMILES	TGI [µM]	GI50 [µM]
c1ccc(C2=NNC3c4ccccc4-c4ccccc4N3C2)cc1 (stereo not drawn)	71.7	
CN/N=C(/CCN1CCCC1)CC(c1ccccc1)c1c(O)c2ccccc2oc1=O (stereo not drawn)	> 100	
COc1ccc(OC)c(/C=C/C(=O)N/N=C/c2ccc(Cl)cc2)c1	> 100	0.909
COc1ccc(C(=O)c2cc(C)c(OC)c(C)c2)c(OC)c1N(C(=O)C(Cl)Cl)C(=O)C(Cl)Cl	0.468	0.0468
CCN(CC)c1sc(N(CC)CC)c2c1SSSSS2	3.46	1.75
O=C(c1cccc(O)c1O)c1cn(Cc2ccc(F)cc2)c2cccc(O)c12	43.8	15.9
COC(=O)Nc1nc2ccc(Oc3ccc(NC(=O)Nc4ccccc4)cc3)cc2[nH]1	5.21	0.18
O=C1c2c(Br)sc(Br)c2C(NC(=O)C(F)(F)F)C1O (stereo not drawn)	79.8	
CCN(CC)CCCC(C)Nc1c(C)cnc2cc(Cl)c(C)cc12 (stereo not drawn)	15	4.57
CCCCCCCC(CC(=O)NC(CO)C(=O)NC(CO)CC(C)C)OC(=O)CC(CCCCCCC)OC(=O)CC(CCCCCCC)OC1OC(C)C(O)C(OC2OC(C)C(O)C(OC(C)=O)C2O)C1O (stereo not drawn)	35.1	
CCc1[nH]c(=O)nc(N)c1-c1ccc(N2CCCCC2)c([N+](=O)[O-])c1	> 100	
CCC#CC[C@H]1C/C=C2/C(=O)C=C[C@@H]2C/C=C\CCCC(=O)O1	5.26	1.27
CCN(CC)CCN1CC(O)=C(c2nc(-c3ccc(Cl)cc3)cs2)C1=N	3.88	1.85
COc1cc(OC)c(/C=C/C(=O)c2c(OC)cccc2OC)c(OC)c1	> 100	1.99
O=C(Nc1ccc(Cl)cc1)c1cc(-c2ccc(F)cc2)c2sc(=O)[nH]c2n1	3.93	1.11
COc1cc(NC(=O)c2cc(O)c(CC=C(C)C)c(O)c2)cc2c1O[C@]1(C)CC[C@@H](O)C(C)(C)[C@H]1C2	31.7	11.2
Cc1cc(S(=O)(=O)Nc2nc(N)nc(N3N=CCC3C)n2)c(SCC(=O)O)cc1Cl (stereo not drawn)	> 10	
Cc1ccc(C(=NN=C(N)N)c2ccc(C)cc2)cc1	10.9	1.69
Clc1nc(Cl)c2ncn(Cc3cccc(COc4cccc(OCc5cccc(Cn6cnc7c(Cl)nc(Cl)nc76)c5)c4)c3)c2n1	27.5	4.97
CCS(=O)(=O)c1ccc(OC)c(Nc2ncc(-c3cccc(OC)c3)o2)c1	> 23.6	4.65
CCCCN=C(N)c1ccc(OCCSCCOc2ccc(C(N)=NCCCC)cc2)cc1	> 100	65.4
